Test results taken from US20120328569A1, “INHIBITORS OF HEPATITIS C VIRUS NS5B POLYMERASE” (priority 2010, published 2012).

Test system: HCV genotype 1b replicon
Experiment: HCV replicon assay, cell ELISA with antibody to replicon-encoded NS3/4A (genotype 1b replicon)
Type: cell-based, hepatitis C virus
Conditions: Hepatitis C virus, 96 h, read-out: Replicon 1b IC50 (nM), HCV genotype 1b replicon cells, 96 hours incubation, NS3/4A ELISA readout
How it was run: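 An ELISA on lysed cells, using an antibody against NS3/4A protease, served as the proxy for replicon RNA. Cells had first been exposed for 96 h to serially diluted compound in G418-free conditions. Percent of DMSO control was fitted with a four-parameter function to give IC50.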

First: CNC(=O)c1c(-c2ccc(F)cc2)oc2cc(N(C)S(C)(=O)=O)c(-c3ccc(CNS(=O)(=O)c4ccccc4)cc3)cc12 [Example 105, 2-(4-fluorophenyl)-N-methyl-6-[methyl (methylsulfonyl)amino]-5-(4-{[(phenylsulfonyl)amino]methyl}phenyl)-1-benzofuran-3-carboxamide]
Second: CNC(=O)c1c(-c2ccc(F)cc2)oc2cc(N(C)S(C)(=O)=O)c(-c3ccc(-c4ccccc4)cc3)cc12 [Example 112, 5-(biphenyl-4-yl)-2-(4-fluorophenyl)-N-methyl-6-[methyl(methylsulfonyl)amino]-1-benzofuran-3-carboxamide]
The IC50 of the first is higher: 57 nM for the first, less than 8 nM for the second. The second is the more potent here.

`CNC(=O)c1c(-c2ccc(F)cc2)oc2cc(N(C)S(C)(=O)=O)c(-c3ccc(C(F)(F)F)cc3)cc12` [Example 108, 2-(4-fluorophenyl)-N-methyl-6-[methyl(methylsulfonyl)amino]-5-[4-(trifluoromethyl)phenyl]-1-benzofuran-3-carboxamide] and `CNC(=O)c1c(-c2ccc(F)cc2)oc2cc(N(C)S(C)(=O)=O)c(-c3ccc(O)cc3)cc12` [Example 113, 2-(4-fluorophenyl)-5-(4-hydroxyphenyl)-N-methyl-6-[methyl(methylsulfonyl)amino]-1-benzofuran-3-carboxamide] are within 1.5-fold of each other in IC50: 53 nM for the first, 74 nM for the second.

First: CNC(=O)c1c(-c2ccc(F)cc2)oc2cc(N(C)S(C)(=O)=O)c(-c3ccc(OC(C)C)cc3)cc12 [Example 109, 2-(4-fluorophenyl)-N-methyl-6-[methyl(methylsulfonyl)amino]-5-[4-(propan-2-yloxy)phenyl]-1-benzofuran-3-carboxamide]
Second: CCc1ccc(-c2cc3c(C(=O)NC)c(-c4ccc(F)cc4)oc3cc2N(C)S(C)(=O)=O)cc1 [Example 110, 5-(4-ethylphenyl)-2-(4-fluorophenyl)-N-methyl-6-[methyl(methylsulfonyl)amino]-1-benzofuran-3-carboxamide]
The IC50 of the first is 2.4-fold higher: 216 nM for the first, 90 nM for the second.

Going from `CNC(=O)c1c(-c2ccc(F)cc2)oc2cc(N(C)S(C)(=O)=O)c(-c3cc(F)cc(F)c3)cc12` [Example 111, 5-(3,5-difluorophenyl)-2-(4-fluorophenyl)-N-methyl-6-[methyl(methylsulfonyl)amino]-1-benzofuran-3-carboxamide] to `CNC(=O)c1c(-c2ccc(F)cc2)oc2cc(N(C)S(C)(=O)=O)c(-c3ccc(F)c(-c4nc5ccccc5s4)c3)cc12` [Example 145, 5-[3-(1,3-benzothiazol-2-yl)-4-fluorophenyl]-2-(4-fluorophenyl)-N-methyl-6-[methyl (methylsulfonyl)amino]-1-benzofuran-3-carboxamide], the IC50 falls from 40 nM to 6 nM (6.7-fold). The second is the more potent here.

First: CNC(=O)c1c(-c2ccc(F)cc2)oc2cc(N(CCNCc3ccccc3)S(C)(=O)=O)c(-c3ccccc3)cc12 [Example 123, 6-{[2-(benzylamino)ethyl](methylsulfonyl)amino}-2-(4-fluorophenyl)-N-methyl-5-phenyl-1-benzofuran-3-carboxamide]
Second: CNC(=O)c1c(-c2ccc(F)cc2)oc2cc(N(CCN(C)Cc3ccccc3)S(C)(=O)=O)c(-c3ccccc3)cc12 [Example 124, 6-[{2-[benzyl(methyl)amino]ethyl} (methylsulfonyl)amino]-2-(4-fluorophenyl)-N-methyl-5-phenyl-1-benzofuran-3-carboxamide]
The IC50 of the first is lower: 111 nM for the first, greater than 10000 nM for the second.

First: CNC(=O)c1c(-c2ccc(F)cc2)oc2cc(N(C)S(C)(=O)=O)c(-c3cccc(-c4nc5ccccc5s4)c3)cc12 [Example 135, 5-(3-(benzo[d]thiazol-2-yl)phenyl)-2-(4-fluorophenyl)-N-methyl-6-(N-methylmethylsulfonamido)-1-benzofuran-3-carboxamide]
Second: CNC(=O)c1c(-c2ccc(F)cc2)oc2cc(N(C)S(C)(=O)=O)c(-c3cccc(-c4nc5ccc(C)cc5s4)c3)cc12 [Example 143, 2-(4-fluorophenyl)-N-methyl-5-[3-(6-methyl-1,3-benzothiazol-2-yl)phenyl]-6-[methyl(methylsulfonyl)amino]-1-benzofuran-3-carboxamide]
The IC50 of the first is 2-fold lower: 4 nM for the first, 8 nM for the second. The first is the more potent here.

Compared with `CNC(=O)c1c(-c2ccc(F)cc2)oc2cc(N(C)S(C)(=O)=O)c(-c3cccc(-c4cnc(-c5ccccc5)s4)c3)cc12` [Example 136, 2-(4-fluorophenyl)-N-methyl-6-[methyl (methylsulfonyl)amino]-5-[3-(2-phenyl-1,3-thiazol-5-yl)phenyl]-1-benzofuran-3-carboxamide], `CNC(=O)c1c(-c2ccc(F)cc2)oc2cc(N(C)S(C)(=O)=O)c(-c3cccc(-c4nnc(-c5ccccc5)o4)c3)cc12` [Example 137, 2-(4-fluorophenyl)-N-methyl-6-[methyl (methylsulfonyl)amino]-5-[3-(5-phenyl-1,3,4-oxadiazol-2-yl)phenyl]-1-benzofuran-3-carboxamide] is 2.7-fold lower in IC50: 16 nM for the first, 6 nM for the second.

Going from `CNC(=O)c1c(-c2ccc(F)cc2)oc2cc(N(C)S(C)(=O)=O)c(-c3cccc(-c4noc5ccccc45)c3)cc12` [Example 138, 5-[3-(1,2-benzisoxazol-3-yl)phenyl]-2-(4-fluorophenyl)-N-methyl-6-[methyl (methylsulfonyl)amino]-1-benzofuran-3-carboxamide] to `CNC(=O)c1c(-c2ccc(F)cc2)oc2cc(N(C)S(C)(=O)=O)c(-c3cccc(-c4cn5ccccc5n4)c3)cc12` [Example 141, 2-(4-fluorophenyl)-5-[3-(imidazo[1,2-a]pyridin-2-yl)phenyl]-N-methyl-6-[methyl (methylsulfonyl)amino]-1-benzofuran-3-carboxamide], the IC50 falls from 9 nM to 3 nM (3-fold). The second is the more potent here.

First: CNC(=O)c1c(-c2ccc(F)cc2)oc2cc(N(C)S(C)(=O)=O)c(-c3cccc(-c4nnn(Cc5ccccc5)n4)c3)cc12 [Example 139, 5-[3-(2-benzyl-2H-tetrazol-5-yl)phenyl]-2-(4-fluorophenyl)-N-methyl-6-[methyl (methylsulfonyl)amino]-1-benzofuran-3-carboxamide]
Second: CNC(=O)c1c(-c2ccc(F)cc2)oc2cc(N(C)S(C)(=O)=O)c(-c3cccc(-c4nnn(CC(=O)O)n4)c3)cc12 [Example 140, [5-(3-{2-(4-fluorophenyl)-3-(methylcarbamoyl)-6-[methyl (methylsulfonyl)amino]-1-benzofuran-5-yl}phenyl)-2H-tetrazol-2-yl]acetic acid]
The IC50 of the first is 240-fold lower: 5 nM for the first, 1190 nM for the second. The first is the more potent here.

First: CNC(=O)c1c(-c2ccc(F)cc2)oc2cc(N(C)S(C)(=O)=O)c(-c3cccc(-c4nc5cccnc5s4)c3)cc12 [Example 142, 2-(4-fluorophenyl)-N-methyl-6-[methyl (methylsulfonyl)amino]-5-[3-([1,3]thiazolo[5,4-b]pyridin-2-yl)phenyl]-1-benzofuran-3-carboxamide]
Second: CNC(=O)c1c(-c2ccc(F)cc2)oc2cc(N(C)S(C)(=O)=O)c(-c3cccc(-c4nc5c(C)cccc5s4)c3)cc12 [Example 146, 2-(4-fluorophenyl)-N-methyl-5-[3-(4-methyl-1,3-benzothiazol-2-yl)phenyl]-6-[methyl (methylsulfonyl)amino]-1-benzofuran-3-carboxamide]
The IC50 of the first is 15-fold lower: 1 nM for the first, 15 nM for the second.

`CNC(=O)c1c(-c2ccc(F)cc2)oc2cc(N(C)S(C)(=O)=O)c(-c3ccc(OC)c(-c4nc5ccccc5s4)c3)cc12` [Example 144, 5-[3-(1,3-benzothiazol-2-yl)-4-methoxyphenyl]-2-(4-fluorophenyl)-N-methyl-6-[methyl (methylsulfonyl)amino]-1-benzofuran-3-carboxamide] showed an IC50 of 11 nM.
